Literature values in US12233048B2 (Société des Produits Nestlé S.A., priority 2022, dated 2025).

time after ingestion for blood plasma concentration to reach its peak (after ingestion): more than 30 minutes | bioavailability (exogenous melatonin): poor and highly variable
Compound: COc1ccc2[nH]cc(CCNC(C)=O)c2c1 [melatonin, N-acetyl-5-methoxytryptamine]
